In US9745357B2, “Peptides used for treating cancers and, in particular, chronic lymphoid leukaemia” (Centre National de la Recherche Scientifique, priority 2009, dated 2017):
Like-named read-outs stand apart in the source and are kept apart here. No end group written: not given here.

Experiments:
[1] = system: cap-dependent translation (eIF4E-dependent); assay: Effect of the peptides on translation of capped luciferase mRNA in rabbit reticulocyte lysate; format: biochemical; settings: 50 μM peptide, compared with DMSO = 100%; FIG. 2
Experimental: The peptides having the IRS motif and the sequences of 4EBPlike type (A1WT, BPSgWT, and BP2WT) or the mutant sequences of 4EPBlike type (A1YALA, BPSgYALA, BP2YALA) are incubated in rabbit reticulocyte lysate containing capped mRNAs encoding luciferase, an enzyme of which the activity can be easily assayed. The translational activity is directly proportional to the activity of the luciferase produced. The translational activity in the presence of peptide is compared with that obtained during the addition of an equivalent volume of DMSO, considered to be 100%.
The peptides were produced, purified by HPLC (purity>95%), and freeze-dried by Thermofisher Scientific. The peptides were then dissolved at 10 mM in DMSO.
The capped mRNAs encoding Renilla luciferase (Luc R) were produced by the T7 Message Machine Kit system (Ambion) from the pGb-Eg2-410Δ2-hxG-A65 plasmid linearized with EcoRV (Legagneux V, Omilli F, Osborne HB (1995) Substrate-specific regulation of RNA deadenylation in Xenopus embryo and activated egg extracts. RNA 1: 1001-1008).
The Luc R mRNAs were translated for one hour at 30° C. in rabbit reticulocyte lysate (Flexi Rabbit Reticulocyte Lysate System, Promega) in the presence of 50 μM of peptide. The luciferase activity was determined using the Renilla luciferase assay (Promega) on the Tristar LB941 luminometer (Berthold).
A capped mRNA (having a cap at the 5′ end) encoding luciferase, a protein which can be easily assayed by measuring its activity, was translated in the presence of these various peptides in rabbit reticulocyte lysate (FIG. 2). The luciferase activity measured is directly proportional to the amount of luciferase protein produced and therefore to the cap-dependent translational activity. Since the peptides are dissolved in DMSO, it was important to test the effect of DMSO on the translation. […] The translational activity in the presence of peptide was compared with that obtained when an equal volume of DMSO is added, considered to be equal to 100%.

[2] = system: B lymphocytes from patients suffering from chronic lymphoid leukemia (CLL); settings: for IC50: read-out: IC50 (concentration of peptide causing the death of 50% of the cells), after 24 H
Experimental: Peripheral blood B lymphocytes taken from patients suffering from CLL and then purified on a Ficoll cushion and placed in culture are incubated in the presence of […] of the peptides described for FIG. 2. The percentage cell survival after 4 hours (gray column) or 24 hours (white column) of culture corresponds to the percentage of cells labeled neither with annexin nor with propidium iodide, evaluated by flow cytometry.
The CLL B lymphocytes were obtained from peripheral blood of 18 different patients suffering from chronic lymphoid leukemia. […] The samples were taken in the Brest hospital center, in the hematology department. The blood samples were taken after informing the patients and obtaining their informed consent.
The lymphocytes, mononuclear cells, were isolated from the heparinized peripheral blood samples by Ficoll-Hypaque (LSM 1077 lymphocyte, euro-bio) centrifugation. The red blood cells were lyzed by incubation for 10 min in VersaLyse Lysing Solution (Beckman Coulter). The mononuclear cells are obtained after 2 washes in culture medium (RPMI1640, Gibco BRL).
(§1) The cells were cultured in a culture medium composed either of RPMI 1640 (B lymphocytes) or of DMEM (COS7, HCT116, HGT1, 293, HeLa) containing 10% of FCS (fetal calf serum, 1% of penicillin-streptomycin and 1% of glutamine, Gibco BRL). The cells are distributed in a 24-well plate and cultured at 37° C. in a humid atmosphere under 5% CO2.
(§2) 400 μl of cell suspension (1×10^6 cells/ml) per well were treated for 4 h or 24 h with various concentrations of peptides. The test for activity of the peptides in the presence of emetine (FIG. 6) was carried out by preincubating the cells with 100 μM of emetine for one hour before the addition of peptide.
(§3) After the cells have been washed with PBS, they were analyzed using the Annexin V-FITC IP system according to the supplier's recommendations (Beckman Coulter).
The cells taken from patients suffering from chronic lymphoid leukemia were purified on a Ficoll cushion. […] The cells were placed in culture in RPMI medium in the presence of 10% FCS (fetal calf serum). The peptides were added directly to the culture medium. These peptides comprise the IRS sequence (the amino acid sequence of which is RYIRS) which is known to allow the penetration of peptides into B lymphocytes in culture (Dong et al., 2005). […] The cells which survive the treatment are those which are labeled neither with annexin nor with propidium iodide.

[3] = system: B-cell prolymphocytic leukemia cells; format: cell-based, human; settings: 24 h
Experimental: (§4) FIG. 7: Activity of the A1WT peptide on cells of lymphocytic, lymphoid, gastric, colonic or renal origin The cells are prepared and placed in culture (see Materials and Methods) and then incubated for 4 H with the A1WT or A1 YALA peptide. The percentage cell survival corresponds to the percentage of cells labeled neither with annexin nor with propidium iodide, evaluated by flow cytometry. The names of the pathological conditions from which the patients from whom the samples are taken are suffering are indicated under the figure. The control T (L.T.) and B (L.B.) lymphocytes are taken from patients suffering from a disease not related to a lymphocytic pathological condition (hemochromatosis).
as §1, §2, §3
The cells of lymphoid origin all originated from samples taken from patients suffering from various pathological conditions classified according to the seat of the tumor proliferation. This proliferation takes place either in the bone marrow, for CLL, B-cell prolymphocytic leukemia and T-cell acute lymphoblastic leukemia (T-ALL); or in the lymph nodes for mantle cell lymphoma and marginal zone lymphoma. A classification can also be carried out according to the cell type affected: B lymphocytes (CLL, B-cell prolymphocytic leukemia, mantle cell lymphoma and marginal zone lymphoma) or T lymphocytes (T-ALL).

[4] = system: acute myeloid leukemia (AML) cells; format: cell-based, human; settings: 4 h, 40 μM
Experimental: as §4, §1
400 μl of cell suspension (1×10^6 cells/ml) per well were treated for 4 h or 24 h with various concentrations of peptides. […]
After the cells have been washed with PBS, they were analyzed using the Annexin V-FITC IP system according to the supplier's recommendations (Beckman Coulter). […]

[5] = system: 293 cells (human embryo kidney cells transformed with adenovirus 5); assay: Cell survival of 293 cells, Syto 13/propidium iodide fluorescence microscopy; format: cell-based; settings: one hour incubation, various concentrations; FIG. 10
Experimental: The cells cultured in glass-bottomed multiwell plates are incubated for one hour with the A1WT or A1 YALA peptide at the concentrations indicated on the figure. The percentage cell survival is obtained by calculating the ratio between the cells stained with Syto 13 and those stained with propidium iodide (see Materials and Methods).
The analyses were carried out on a Zeiss Observer Z1 epifluorescence microscope. The cells are cultured in a glass-bottomed multiwell plate, propidium iodide and Syto13 (Invitrogen) are added to the medium at a concentration of 1 mg/ml and 5 μM, respectively. The Syto 13 binds to the DNA in the nuclei of the cells which then emit a green fluorescence. When the membrane permeability is modified during the cell death process, the propidium iodide penetrates the cell and causes the appearance of a red fluorescence when it binds to the DNA of the cell nuclei. The ratio between the number of nuclei emitting a green fluorescence and the number of nuclei emitting a red fluorescence represents the fraction of live cells expressed as percentage cell survival in the figures.

**Q.** How did the “inhibition of translation (luciferase activity)” value [1] turn out when “RRKYGRDFLLRFRYIRS [A1 WT IRS, RRKYGRDFLLRFRYIRS]” was run?
**A.** Its value is “more substantially inhibits the translation”.

**Q.** And the “cell survival, peptide in the presence of emetine” value ([2]; 40 μM peptide after 1 h preincubation with 100 μM emetine, 4 H (from 97%), FIG. 6)?
**A.** The value was 27%.

**Q.** What about the “cell effect CLL 40 (survival)” value ([2]; 40 μM peptide, 4 hours of culture, cells not labeled with annexin or propidium iodide) of the same sequence?
**A.** Its value is “+ (+: survival <25%)”.

**Q.** What about the “change of the effect on survival over time” value ([2]; 40 μM, 1 H, 2 H, 4 H and 24 H, FIG. 4) of the same sequence?
**A.** Its value is “no longer active after 4 H of incubation”.

**Q.** What about the “effect of the peptide on cell mortality, in words (relative to A1 WT IRS)” value ([2]; 40 μM, 4 hours, FIG. 9) of the same sequence?
**A.** The value was “high cell mortality”.

**Q.** What about the “cell survival rate compared with cells incubated without peptide” value ([2]; 4 H of incubation with 20 μM of peptide, FIG. 8) of the same sequence?
**A.** The value was “less than 65%”.

**Q.** And the IC50 ([2]; batch of cells from a second patient)?
**A.** Its IC50 is 24 µM.

**Q.** What about the IC50 ([2]; first patient, FIG. 5) of the same sequence?
**A.** The IC50 was ~28 µM.

**Q.** And the cell survival [3]?
**A.** Its cell survival is 20%.

**Q.** What about the survival rate [4] of the same sequence?
**A.** The survival rate was 38%.

**Q.** And the “effect on cell survival” value [5]?
**A.** The value was “dose-dependent effect”.
